Assay results from paper PMC10685318, “Trans-cyclosulfamidate mannose-configured cyclitol allows isoform-dependent inhibition of GH47 α-D-mannosidases through a bump–hole strategy” (Chemical Science, 2023).

Columns and labels:
[1] = biological target: CkGH47 WT (Caulobacter sp. K31, UniProt B0SWV2); assay: Inhibition of CkGH47 WT monitored by enzymatic conversion of α-1,2-mannobiose to mannose; assay type: biochemical, Caulobacter K31 strain; settings: for inhibition of the wild-type GH47 model enzyme: even at high inhibitor concentrations
CkGH47 WT, sequence (B0SWV2 entry or part of it): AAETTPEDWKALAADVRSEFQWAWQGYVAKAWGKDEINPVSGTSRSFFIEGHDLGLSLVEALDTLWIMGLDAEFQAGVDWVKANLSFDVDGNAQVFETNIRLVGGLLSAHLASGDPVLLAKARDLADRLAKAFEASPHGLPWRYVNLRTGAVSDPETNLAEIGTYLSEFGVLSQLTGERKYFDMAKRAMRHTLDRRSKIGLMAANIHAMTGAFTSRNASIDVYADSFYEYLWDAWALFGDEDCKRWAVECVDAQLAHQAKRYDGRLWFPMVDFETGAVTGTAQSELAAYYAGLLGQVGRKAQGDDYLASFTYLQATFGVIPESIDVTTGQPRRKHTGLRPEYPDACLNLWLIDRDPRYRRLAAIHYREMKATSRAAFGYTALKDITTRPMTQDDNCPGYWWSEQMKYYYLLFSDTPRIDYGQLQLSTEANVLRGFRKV
Experimental: (§1) Trans-Cyclosulfamidate Cyclitols Males et al.
Figure S4. Inhibition of CkGH47 by 6 monitored by the enzymatic conversion of mannobiose to mannose. 3 concentrations of the […]
and the reaction was incubated for 1 hour at 22 °C. The enzyme was heat denatured (90 °C for 5 minutes). Using the mannose detection kit, NADPH production at 340 nm was measured and converted to mannose concentration using a standard curve of […]
Figure S5. Docking of 6, in pink, into the crystal structure of Caulobacter GH47 (PDB ID: 4AYO), in gold, showing the distance between the oxygen of 6 and L310. Left: 6 was docked into the CkGH47 enzyme active site by least squares fit superposition in coot against the CkGH47 and kifunensine complex (PDB ID 5NE5). Right: Position of CkGH47 WT crystal structures of the inhibitors 6 (pink) and kifunensine (green); native is shown in gold (PDB ID: 4AYO) and CkGH47 in complex with kifunensine is shown in orange (PDB ID: 5NE5); there are 2 alternate conformations of leucine each with 50% occupancy in the crystal structure. […]
(§2) 2.1 Biochemical and biological methods
(§3) To obtain Michaelis-Menten kinetics
(§4) Lastly, to achieve an inhibition constant, the
(§5) The gradient of the graph, V0/Vi
(§6) After taking each time point, the sample was heat denatured at 95 °C for 5 minutes. The reactions were conducted in triplicate and averaged. […]
(§7) microplate spectrophotometer (BioTek). The mannose detection kit (Megazyme) was used to detect […]
(§8) dehydrogenase, was monitored at 340 nm. The absorbance after hexokinase was added to the mixture […]
(§9) 2.1.2 Isothermal titration calorimetry
(§10) MicroCal ITC200 calorimeter at 25 °C over 20 injections. The experiment was duplicated to obtain a […]
(§11) the MicroCal PEAK-ITC analysis software.
(§12) 2.2 Crystallographic data collection and refinement of CkGH47
(§13) 3′ and the reverse primer was 5′-[…]-3′. Protein production and purification was followed as described previously.[3]
(§14) Reference data in the form of a
(§15) Refinement of the model was conducted […]
(§16) conformation was conducted using […]. Details of the data collection and refinement statistics […]

[2] = Chemical stability of the final compounds on storage; assay type: physicochemical
Description: 1,6-Cis-manno-cyclosulfate, 4, and 1,6-trans-manno-cyclosulfate, 5, were synthesized from mannose-configured cis-diol and trans-diol, respectively (ESI, Scheme S1 ^†).

[3] = biological target: T1, CkGH47 L310S (Caulobacter sp. K31, UniProt B0SWV2, L310S); assay: Isothermal titration calorimetry; assay type: binding, Caulobacter K31 strain
T1 sequence (B0SWV2 25-462 L310S): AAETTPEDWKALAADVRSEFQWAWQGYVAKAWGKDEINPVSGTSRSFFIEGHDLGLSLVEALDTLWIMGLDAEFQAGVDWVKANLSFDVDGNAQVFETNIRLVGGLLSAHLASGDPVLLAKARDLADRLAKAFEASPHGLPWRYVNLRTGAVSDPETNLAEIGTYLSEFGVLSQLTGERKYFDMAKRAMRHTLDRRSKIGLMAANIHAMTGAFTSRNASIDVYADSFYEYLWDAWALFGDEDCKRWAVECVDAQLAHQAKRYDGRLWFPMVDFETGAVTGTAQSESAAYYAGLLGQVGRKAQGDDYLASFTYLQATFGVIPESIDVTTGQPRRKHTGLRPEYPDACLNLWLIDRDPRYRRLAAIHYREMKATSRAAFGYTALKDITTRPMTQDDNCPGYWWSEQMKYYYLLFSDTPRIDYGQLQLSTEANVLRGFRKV
Description: as §1
Figure S6. Isothermal titration calorimetry binding thermodynamics between CkGH47 L310S and 6. A. raw data injection profile;
B. Titration curve. N = 1.01 ± 0.02 sites, ΔH = -7.39 ± 0.19 kcal mol-1.
Figure S7. Overlay of the human GH47 α-1,2-mannosidase structures highlighting the conserved active site. Crystal structure of ERManI is in orange (PDB ID: 1FMI); the remaining structures were predicted by Alphafold[5], in light blue is GMIB, in dark blue is GMIA, in purple is GMIC, in yellow is EDEM2, in red is EDEM3 and in pink is EDEM1. A. The crystal structure from this work of CkGH47 and 3 is in green. Residues annotated according to the numbering of CkGH47. B. The human GH47 enzymes are superposed minus the CkGH47 enzyme; the residues are annotated according to the numbering of HsERManI. […]
as §2, §3, §4, §5, §6, §7, §8, §9, §10, §11, §12, §13, §14, §15, §16
Figures of the structure were produced by using CCP4mg.

[4] = test system: GH47 model enzyme from Caulobacter K31 strain; assay: Crystal soaks with WT GH47; assay type: binding
[5] = biological target: T1, CkGH47 L310S; assay: Inhibition constant (V0/Vi vs inhibitor, mannose detection kit) with the CkGH47 L310S mutant; assay type: biochemical, Caulobacter K31 strain
Experimental: Building on this kinetic assay, we obtained an inhibition constant by pre-incubation of the enzyme and 6 for 30 minutes and then following the same time-point procedure as for the Michaelis–Menten assay. […] Similarly, a dissociation constant of 970 nM was obtained using isothermal titration calorimetry (Fig. S6 ^†). To understand the interactions between 6 and CkGH47 L310S regarding the introduced hole, a crystal structure complex was obtained (statistics in Table S2 ^†). Trans-cyclic sulfamidate 6 binds similarly to other conformationally restricted GH47 inhibitors, with additional interactions between the sulfamidate and active site residues, for example, the nitrogen and oxygen, and D249 and R363 side chains. Additionally, the introduced serine residue is indeed now in a position to hydrogen bond to the oxygen of the sulfamidate with a distance of 3.1 Å.
as §1, §2, §3, §4, §5, §6, §7, §8

[6] = isothermal titration calorimetry

In the case of `O=S1(=O)N[C@@H]2[C@@H](O)[C@@H](O)[C@H](O)[C@@H](CO)[C@H]2O1` [compound 6, 1,6-trans-manno-cyclosulfamidate], the “α-1,2-mannobiose hydrolysed by the WT GH47 mannosidase to mannose” value ([1]; after the addition of 1 mM 6) is reported as 82%, the “inhibition of the wild-type GH47 model enzyme” value [1] is reported as “no significant inhibition” and the “inhibition of the wild-type GH47 model enzyme” value ([1]; listed as 1,6-trans-cyclic sulfamidate) is reported as “does not inhibit”. For the same molecule, the chemical stability [2] was “chemically stable”, the Kd [3] was 970 nM and the N [3, 6] was 1.01 ± 0.02 sites. For the same molecule, the ΔH [3, 6] was -7.39 ± 0.19 kcal/mol, the “binding in crystal soaks” value [4] was “no binding” and the Ki [5] was 574 nM.
